Entries after “also recorded” stand apart in the source; their conditions may differ. Blank lines part the entries; values can stand above or below the compound they belong to.
Columns and labels:
Type in all cases: physicochemical
[1] = Hygroscopicity / deliquescence of crystalline salts at elevated relative humidity
Text: This is exemplified by the hygroscopicity of the crystalline hydrochloride (HCl) salt of trans-4-({2-[(2S)-2-cyanopyrrolidinyl]-2-oxoethyl}amino)-N,N-dimethylcyclohexanecarboxamide. […] That is, the benzenesulfonic acid salts of the present invention sorb much lower amounts of water when exposed to a broad range of humidities and can be prepared in a physically stable crystal form, thus enhancing their suitability as medicaments.

[2] = Moisture sorption testing of besylate monohydrate salt (integrated gas flow microbalance)
Protocol: Moisture sorption was measured with an integrated gas flow microbalance system. Approximately 20 mg of 4-({2-[(2S)-2-cyanopyrrolidinyl]-2-oxoethyl}amino)-N,N-dimethylcyclohexanecarboxamide besylate monohydrate salt was weighed into a sample pan of an integrated gas flow microbalance system (SGA100, VTI Corporation). The sample was dried at 60° C. under a dry nitrogen stream until the rate of weight loss was less than 0.015% in 5 minutes. After drying the sample was equilibrated at 25° C. and the relative humidity increased stepwise (adsorption) to 5, 15, 25, 35, 45, 55, 65, 75, 85 and 95% Each relative humidity step was held until the sample equilibrated at that condition. Equilibrium was defined as a weight change of less than 0.015% in 5 minutes. The relative humidity was then decreased step wise (desorption) to 90, 80, 70, 60, 50, 40, and 20% Each step was held until equilibrium was reached. The equilibrium condition was the same as in the sorption phase. The % w/w increase or decrease in moisture content of the sample is reported for each equilibrated RH condition.

[3] = Infrared (IR) studies of hydration/dehydration of besylate monohydrate
Protocol: The partially dehydrated form of the monohydrate Form 1 of Formula I is stable for at least 24 hours at room temperature and partial hydration to the monohydrate of Formula I can be recovered at higher relative humidity (RH).
Samples of trans-4-({2-[(2S)-2-cyanopyrrolidinyl]-2-oxoethyl}amino)-N,N-dimethylcyclohexane-carboxamide besylate monohydrate either as a pure solid or diluted in KBr powder were placed inside a FTIR spectrometer purged under dry N2 at room temperature (RT). […] Upon re-exposure of the partially dehydrated samples to the atmosphere for <1 min., the intensities of these IR bands are fully recovered. The FTIR spectrum of this experiment is in FIG. 4.

[4] = Moisture sorption testing of besylate anhydrate salt (integrated vacuum microbalance); conditions: in the presence of water vapour, such as at elevated relative humidity
Protocol: Moisture sorption was measured with an integrated vacuum microbalance system. Approximately 11 mg of 4-({2-[(2S)-2-cyanopyrrolidinyl]-2-oxoethyl}amino)-N,N-dimethylcyclohexanecarboxamide besylate anhydrate salt was weighed into a sample pan of an integrated vacuum microbalance system (MB300G, VTI Corporation). The sample was dried at 60° C. under vacuum until the rate of weight loss was less than 0.015% in 2 minutes. After drying the sample was equilibrated at 25° C. and the relative humidity increased stepwise (adsorption) to 15, 25, 35, 45, 55, 65, 75, 85 and 95% Each relative humidity step was held until the sample equilibrated at that condition. Equilibrium was defined as a weight change of less than 0.015% in 2 minutes. The relative humidity was then decreased step wise (desorption) to 90, 80, 70, 60, 50, 40, 30 and 20% Each step was held until equilibrium was reached. The equilibrium condition was the same as in the sorption phase. The % w/w increase or decrease in moisture content of the sample is reported for each equilibrated RH condition.

[5] = purged under dry N2 at room temperature

Compound: CN(C)C(=O)[C@H]1CC[C@H](NCC(=O)N2CCC[C@H]2C#N)CC1.Cl (relative stereo) [HCl salt, trans-4-({2-[(2S)-2-cyanopyrrolidinyl]-2-oxoethyl}-amino)-N,N-dimethylcyclohexanecarboxamide hydrochloride]
time to deliquesce ([1]; 25° C., relative humidities greater than 75%): approximately 20 hours
time to deliquesce ([1]; 40° C., relative humidities of greater than 75%): approximately 24 hours

Compound: CN(C)C(=O)[C@H]1CC[C@H](NCC(=O)N2CCC[C@H]2C#N)CC1 [Form 1, trans-4-({2-[(2S)-2-cyanopyrrolidinyl]-2-oxoethyl}amino)-N,N-dimethylcyclohexanecarboxamide benzenesulfonate monohydrate]
water absorbed ([2]; relative humidity between 0% and 95% at 25° C.): less than 10 % w/w
additional water sorbed by the monohydrate ([2]; up to 95% relative humidity, on top of monohydrate water content): 1-2 % w/w
desorption of adsorbed water ([2]; when the relative humidity is decreased): readily desorbs
re-exposure time to the atmosphere after which IR bands are fully recovered ([3]; partially dehydrated samples re-exposed to the atmosphere): < 1 min
time to reach dehydration equilibrium (IR bands of H2O) [3, 5]: ~30 min
time within which IR bands assigned to H2O decreased very rapidly [3, 5]: ≤ 10 min
stability of the partially dehydrated form ([3]; room temperature): at least 24 hours
dehydration (loss of water) ([3]; room temperature, purged with or exposed to dried air or dry nitrogen (low relative humidity), benzenesulfonate monohydrate): loses water readily; also recorded: partial dehydration of the hydrate is facile
re-hydration of the dehydrated form ([3]; upon exposure to atmospheric humidity / higher relative humidities, benzenesulfonate monohydrate): re-hydration occurs rapidly; also recorded: re-hydration to the monohydrate occurs very rapidly

conversion of anhydrate form [4]: converts to the hydrate
Compound: CN(C)C(=O)C1CCC(NCC(=O)N2CCC[C@H]2C#N)CC1.O=S(=O)(O)c1ccccc1 (stereo partly drawn) [Form 2, trans-4-({2-[(2S)-2-cyanopyrrolidinyl]-2-oxoethyl}amino)-N,N-dimethylcyclohexanecarboxamide besylate anhydrate]

Source: patent US20090137658A1, “BENZENESULFONIC ACID SALT COMPOUNDS” (Tanabe Seiyaku Co.,Ltd., priority 2003, published 2009)
